What all share (assay type): cell-based
One experiment deals with T1, PPAR alpha (Homo sapiens, UniProt Q07869).
T1 construct: expressed in transfected cells; host or cells: HEK293
T1 sequence (Q07869 1-468): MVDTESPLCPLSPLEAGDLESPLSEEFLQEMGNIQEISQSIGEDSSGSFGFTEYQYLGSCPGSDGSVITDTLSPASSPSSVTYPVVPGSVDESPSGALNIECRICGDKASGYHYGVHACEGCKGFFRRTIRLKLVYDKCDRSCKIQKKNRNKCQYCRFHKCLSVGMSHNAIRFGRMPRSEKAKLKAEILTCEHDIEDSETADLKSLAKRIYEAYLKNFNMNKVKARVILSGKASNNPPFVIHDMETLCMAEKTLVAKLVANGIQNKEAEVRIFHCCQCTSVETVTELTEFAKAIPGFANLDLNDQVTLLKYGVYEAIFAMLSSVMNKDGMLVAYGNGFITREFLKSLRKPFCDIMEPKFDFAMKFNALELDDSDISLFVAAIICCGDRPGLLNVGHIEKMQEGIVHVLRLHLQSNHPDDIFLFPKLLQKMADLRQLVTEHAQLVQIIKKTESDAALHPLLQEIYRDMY
The experiment in a line: Full-length PPAR transcriptional activation assay (PPRE::Luciferase reporter, HEK293 cells), PPAR alpha. Conditions: transfected HEK293 cells, species of receptor not given. The procedure:
(§1) HEK293 cells were seeded the day before transfection into 384-well plates at a cell density of 6,000 cells per well in 40 μl assay medium I (phenol red-free DMEM containing 4% charcoal-dextran stripped FBS, 1% Penicillin-Streptomycin and 1% GlutaMax-1). Then 25 ng of PPRE::Luciferase reporter plasmid, an expression plasmid (25 pg of PPARα, or 40 pg of PPARδ, or 75 pg of PPARγ2), and an appropriate amount of the plasmid pUC19 to bring the total DNA amount to 50 ng was added to 20 μl of phenol-red free DMEM and 150 nL of Fugene 6 and incubated for 30 minutes. The transfection mixtures were then added to the cells and incubated for three hours. 10 μl of test agents in 5% DMSO were then added to the cells and incubated at 37° C. for an additional 18 hours. Luciferase activity was then assayed by adding 25 μl/well of Britelite (Perkin Elmer) according to the manufacturer's protocol and relative light output was measured with an Analyst GT plate reader (Molecular Devices). All experimental points were done in triplicate and the assays were repeated at least 3 times.
(§2) HEK293 cells were seeded the day before transfection in […] dishes at a density of 9×10^6 cells/dish and incubated at 37° C., 10% CO2 for 16-24 hours. Then, […] of PPRE::Luciferase reporter plasmid, an expression plasmid (7.5 ng of PPARα, or 7.5 ng of PPARδ, or 75 ng of PPARγ2), and an appropriate amount of the plasmid pUC19 to bring the total DNA amount to […] were mixed with 54 μl of Fugene 6 in 2 mls of phenol red-free DMEM and incubated for 30 minutes. Transfection mixtures were then incubated with the cells for 18 hours. Cells were then replated into sterile, white TC treated 384-well assay plates at a cell density of 24×10^3 cells/well in 40 μl of assay medium II (phenol-red free DMEM containing 3% charcoal/dextran-stripped FBS, 1% Penicillin-Streptomycin and 1% GlutaMax-1) and incubated at 37° C. for 6 hours. 10 μl of test agents in 5% DMSO were then added to the cells and incubated at 37° C. for an additional 18 hours. Luciferase activity was then assayed by adding 30 μl/well of Britelite (Perkin Elmer) according to the manufacturer's protocol and relative light output was measured with an Analyst GT plate reader (Molecular Devices). All experimental points were done in triplicate and the assays were repeated 3 times.
(In general: Reporter assays use an easily measured gene product as a stand-in for the process of interest.)

Another experiment concerns the target T2, PPAR delta (Homo sapiens, UniProt Q03181).
T2 construct: expressed in transfected cells; host or cells: HEK293
T2 sequence (Q03181 1-441): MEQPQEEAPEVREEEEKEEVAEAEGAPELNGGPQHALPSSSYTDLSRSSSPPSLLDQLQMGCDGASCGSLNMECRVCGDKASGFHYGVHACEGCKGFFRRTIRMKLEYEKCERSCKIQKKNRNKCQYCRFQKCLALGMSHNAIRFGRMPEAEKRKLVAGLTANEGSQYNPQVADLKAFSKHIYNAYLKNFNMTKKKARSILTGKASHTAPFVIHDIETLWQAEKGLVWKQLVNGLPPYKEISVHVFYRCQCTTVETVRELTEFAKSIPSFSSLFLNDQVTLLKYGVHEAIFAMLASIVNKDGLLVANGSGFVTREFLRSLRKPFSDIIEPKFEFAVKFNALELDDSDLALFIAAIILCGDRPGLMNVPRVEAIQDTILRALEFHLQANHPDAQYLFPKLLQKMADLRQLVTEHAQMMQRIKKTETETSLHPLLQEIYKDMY
The experiment can be described thus: Full-length PPAR transcriptional activation assay (PPRE::Luciferase reporter, HEK293 cells), PPAR delta. Conditions: transfected HEK293 cells, species of receptor not given. The method, then:
as §1, §2

The target in another experiment is T3, PPAR gamma (Homo sapiens, UniProt P37231).
T3 construct: expressed in transfected cells; host or cells: HEK293
T3 sequence (P37231 1-505): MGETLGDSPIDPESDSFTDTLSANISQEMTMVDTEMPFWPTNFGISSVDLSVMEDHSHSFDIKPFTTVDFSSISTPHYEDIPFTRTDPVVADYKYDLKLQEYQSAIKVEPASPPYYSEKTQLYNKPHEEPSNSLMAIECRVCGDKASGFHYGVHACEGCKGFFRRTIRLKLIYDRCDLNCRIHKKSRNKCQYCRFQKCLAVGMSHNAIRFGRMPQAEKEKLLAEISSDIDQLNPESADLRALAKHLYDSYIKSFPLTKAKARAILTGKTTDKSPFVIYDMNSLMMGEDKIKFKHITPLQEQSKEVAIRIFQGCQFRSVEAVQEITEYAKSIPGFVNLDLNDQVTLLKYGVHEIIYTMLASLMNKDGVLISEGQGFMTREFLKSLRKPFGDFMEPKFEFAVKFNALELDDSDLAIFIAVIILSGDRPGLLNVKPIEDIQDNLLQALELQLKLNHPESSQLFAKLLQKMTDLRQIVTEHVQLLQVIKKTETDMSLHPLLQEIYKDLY
The experiment in a line: Full-length PPAR transcriptional activation assay (PPRE::Luciferase reporter, HEK293 cells), PPAR gamma. Conditions: transfected HEK293 cells (PPARγ2 plasmid), species of receptor not given. The procedure:
as §1, §2

One may read the EC50 as the concentration giving half of the maximal effect.

As to `CCc1cnc(N(CCCC2Oc3cc(CC(=O)O)ccc3CC2C)Cc2ccc(OC(F)(F)F)cc2)nc1` (single isomer, unassigned) [Example 18A, 2-(2-(3-((5-ethylpyrimidin-2-yl)(4-(trifluoromethoxy)benzyl)amino)propyl)-3-methylchroman-7-yl)acetic acid], the EC50 on PPAR alpha was above 1000 nM; at PPAR delta it was at most 1000 nM; on PPAR gamma, at most 1000 nM.
For the compound `CCc1cnc(N(CCCC2Oc3cc(CC(=O)O)ccc3CC2C)Cc2ccc(OC(F)(F)F)cc2)nc1` (single isomer, unassigned) [Example 18B], the EC50 on PPAR alpha, on PPAR delta and at PPAR gamma was at most 1000 nM each time.
On to `CCc1cnc(N(CCCC2Oc3cc(CC(=O)O)ccc3CC2C)Cc2ccc(OC(F)(F)F)cc2)nc1` (single isomer, unassigned) [Example 18C], for which the EC50 at PPAR alpha is at most 1000 nM; on PPAR delta, at most 1000 nM; on PPAR gamma, above 1000 nM.
For the compound `CCc1cnc(N(CCCC2Oc3cc(CC(=O)O)ccc3CC2C)Cc2ccc(OC(F)(F)F)cc2)nc1` (single isomer, unassigned) [Example 18D], the figures for the EC50 at PPAR alpha, at PPAR delta and at PPAR gamma were above 1000 nM, at most 1000 nM and at most 1000 nM, respectively.
As for `CCc1cnc(N(CCCC2Oc3cccc(CC(=O)O)c3CC2C)Cc2ccc(OC(F)(F)F)cc2)nc1` (single isomer, unassigned) [Example 19A, 2-(2-(3-((5-ethylpyrimidin-2-yl)(4-(trifluoromethoxy)benzyl)amino)propyl)-3-methylchroman-5-yl)acetic acid], the EC50 was above 1000 nM on PPAR alpha, at most 1000 nM on PPAR delta and at most 1000 nM on PPAR gamma.
`CCc1cnc(N(CCCC2Oc3cccc(CC(=O)O)c3CC2C)Cc2ccc(OC(F)(F)F)cc2)nc1` (single isomer, unassigned) [Example 19B, 2-(2-(3-((5-ethylpyrimidin-2-yl)(4-(trifluoromethoxy)benzyl)amino)propyl)-3-methylchroman-5-yl)acetic acid]: the EC50 on PPAR alpha is above 1000 nM; on PPAR delta, at most 1000 nM; at PPAR gamma it was at most 1000 nM.
Turning to `CCc1cnc(N(CCCC2Oc3cccc(CC(=O)O)c3CC2C)Cc2ccc(OC(F)(F)F)cc2)nc1` (single isomer, unassigned) [Example 19C, 2-(2-(3-((5-ethylpyrimidin-2-yl)(4-(trifluoromethoxy)benzyl)amino)propyl)-3-methylchroman-5-yl)acetic acid], the EC50 at PPAR alpha is above 1000 nM; on PPAR delta, at most 1000 nM; on PPAR gamma, at most 1000 nM.
As to `CCc1cnc(N(CCCC2Oc3cccc(CC(=O)O)c3CC2C)Cc2ccc(OC(F)(F)F)cc2)nc1` (single isomer, unassigned) [Example 19D, 2-(2-(3-((5-ethylpyrimidin-2-yl)(4-(trifluoromethoxy)benzyl)amino)propyl)-3-methylchroman-5-yl)acetic acid], the EC50 at PPAR alpha was above 1000 nM; on PPAR delta, at most 1000 nM; on PPAR gamma, at most 1000 nM.
Consider `CCc1cnc(N(CCCN2CCc3ccc(CC(=O)O)cc3C2)Cc2ccc(OC(F)(F)F)cc2)nc1` [Example 1, (2-{3-[(5-Ethyl-pyrimidin-2-yl)-(4-trifluoromethoxy-benzyl)-amino]-propyl}-1,2,3,4-tetrahydro-isoquinolin-7-yl)-acetic acid], for which the EC50 at PPAR alpha was above 1000 nM; at PPAR delta, at most 1000 nM; on PPAR gamma, at most 1000 nM.
For the compound `CCc1cnc(N(CCCN2CCc3ccc(CC(=O)O)cc3C2)Cc2ccc(C(F)(F)F)cc2C(F)(F)F)nc1` [Example 2, (2-{3-[(2,4-Bis-trifluoromethyl-benzyl)-(5-ethyl-pyrimidin-2-yl)-amino]-propyl}-1,2,3,4-tetrahydro-isoquinolin-7-yl)-acetic acid], the EC50 on PPAR alpha was above 1000 nM; at PPAR delta it was at most 1000 nM; at PPAR gamma, at most 1000 nM.
With `CCc1cnc(N(CCN2CCc3ccc(CC(=O)O)cc3C2)Cc2ccc(OC(F)(F)F)cc2)nc1` [Example 3, (2-{2-[(5-Ethyl-pyrimidin-2-yl)-(4-trifluoromethoxy-benzyl)-amino]-ethyl}-1,2,3,4-tetrahydro-isoquinolin-7-yl)-acetic acid], the values for the half-maximal effective concentration (EC50) at PPAR alpha, at PPAR delta and at PPAR gamma were above 1000 nM, at most 1000 nM and at most 1000 nM, respectively.
Consider `CCc1cnc(N(CCN2CCc3ccc(CC(=O)O)cc3C2)Cc2ccc(C(F)(F)F)cc2C(F)(F)F)nc1` [Example 4, (2-{2-[(2,4-Bis-trifluoromethyl-benzyl)-(5-ethyl-pyrimidin-2-yl)-amino]-ethyl}-1,2,3,4-tetrahydro-isoquinolin-7-yl)-acetic acid], for which the EC50 on PPAR alpha is above 1000 nM; on PPAR delta it was at most 1000 nM; at PPAR gamma, at most 1000 nM.
Turning to `CCc1cnc(N(CCCCN2CCc3ccc(CC(=O)O)cc3C2)c2ccc(OC(F)(F)F)cc2)nc1` [Example 5, (2-{4-[(5-Ethyl-pyrimidin-2-yl)-(4-trifluoromethoxy-phenyl)-amino]-butyl}-1,2,3,4-tetrahydro-isoquinolin-7-yl)-acetic acid], the EC50 on PPAR alpha, on PPAR delta and on PPAR gamma was above 1000 nM each time.
For the compound `CCc1cnc(N(CCCN2CCc3ccc(CC(=O)O)cc3C2)c2ccc(OC(F)(F)F)cc2)nc1` [Example 6, (2-{3-[(5-Ethyl-pyrimidin-2-yl)-(4-trifluoromethoxy-phenyl)-amino]-propyl}-1,2,3,4-tetrahydroisoquinolin-7-yl)-acetic acid], the EC50 at PPAR alpha, on PPAR delta and on PPAR gamma was above 1000 nM in each case.
In the case of `CCc1cnc(N(CCCN2CCc3ccc(CC(=O)O)cc3C2)c2ccc(C(F)(F)F)cc2)nc1` [Example 7, (2-[3-[(5-Ethyl-pyrimidin-2-yl)-(4-trifluoromethyl-phenyl)-amino]-propyl]-1,2,3,4-tetrahydroisoquinolin-7-yl)-acetic acid], the EC50 at PPAR alpha, at PPAR delta and on PPAR gamma was above 1000 nM throughout.
